Reference: ChEMBL document CHEMBL1151642, “Dictyol H, a New Tricyclic Diterpenoid from the Brown Seaweed Dictyota dentata” (J Nat Prod, 1985)
Converted amounts (≈) assume the structure as drawn. The source made the active and inactive calls. No cut-off for these calls is given here.

Key:
[1] = Antitumor activity against human 9KB cells; type: functional, cell-based
Escherichia coli = assay: Antimicrobial activity against Escherichia coli at 100 ug; type: functional, organism-based
Pseudomonas aeruginosa = assay: Antimicrobial activity against Pseudomonas aeruginosa at 100 ug; type: functional, organism-based

## C=C1CC[C@@H]([C@@]2(C)CC[C@H](C(C)(C)OC(C)=O)O2)[C@@H](O)[C@H]2C(C)=CC[C@@H]12 [DICTYOL H]
[1]
  IC50: 22 µg/mL (≈ 60.7 µM)
Escherichia coli
  Activity: inactive
Pseudomonas aeruginosa
  Activity: inactive
